Legend:
[1] = biological target: T1, 5-hydroxytryptamine receptor 2C (Homo sapiens, UniProt P28335); assay: Binding affinity to human cloned 5HT2C receptor by radioligand binding assay
T1 sequence (P28335 whole entry): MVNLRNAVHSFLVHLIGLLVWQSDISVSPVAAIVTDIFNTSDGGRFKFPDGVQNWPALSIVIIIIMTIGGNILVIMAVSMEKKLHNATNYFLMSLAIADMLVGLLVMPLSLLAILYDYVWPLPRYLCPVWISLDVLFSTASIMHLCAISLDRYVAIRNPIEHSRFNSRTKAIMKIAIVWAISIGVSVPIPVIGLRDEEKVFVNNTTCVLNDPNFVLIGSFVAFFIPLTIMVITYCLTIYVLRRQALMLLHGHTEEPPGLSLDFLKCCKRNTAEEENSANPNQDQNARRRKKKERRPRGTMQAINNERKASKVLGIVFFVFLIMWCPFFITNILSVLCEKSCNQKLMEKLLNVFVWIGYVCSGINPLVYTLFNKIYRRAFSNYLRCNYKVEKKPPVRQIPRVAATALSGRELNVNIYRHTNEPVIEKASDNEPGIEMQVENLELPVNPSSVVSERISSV

[2] = biological target: T2, Alpha-1A adrenergic receptor (Homo sapiens, UniProt P35348); assay: Binding affinity to human cloned adrenergic alpha-1A receptor by radioligand binding assay
T2 sequence (P35348 whole entry): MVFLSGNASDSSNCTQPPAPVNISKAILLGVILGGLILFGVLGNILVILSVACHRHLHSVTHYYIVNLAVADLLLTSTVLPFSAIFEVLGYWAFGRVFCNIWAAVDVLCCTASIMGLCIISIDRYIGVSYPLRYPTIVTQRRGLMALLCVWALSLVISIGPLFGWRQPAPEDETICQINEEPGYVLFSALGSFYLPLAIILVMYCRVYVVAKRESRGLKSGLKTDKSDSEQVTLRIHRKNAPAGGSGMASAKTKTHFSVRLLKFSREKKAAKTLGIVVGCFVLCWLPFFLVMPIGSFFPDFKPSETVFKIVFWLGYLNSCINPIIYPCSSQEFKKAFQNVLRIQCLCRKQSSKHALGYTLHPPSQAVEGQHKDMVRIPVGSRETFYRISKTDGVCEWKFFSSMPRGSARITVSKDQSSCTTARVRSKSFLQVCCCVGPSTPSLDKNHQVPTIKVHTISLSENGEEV

[3] = biological target: T3, 5-hydroxytryptamine receptor 1A (Homo sapiens, UniProt P08908); assay: Binding affinity to human cloned 5HT1A receptor by radioligand binding assay
T3 sequence (P08908 whole entry): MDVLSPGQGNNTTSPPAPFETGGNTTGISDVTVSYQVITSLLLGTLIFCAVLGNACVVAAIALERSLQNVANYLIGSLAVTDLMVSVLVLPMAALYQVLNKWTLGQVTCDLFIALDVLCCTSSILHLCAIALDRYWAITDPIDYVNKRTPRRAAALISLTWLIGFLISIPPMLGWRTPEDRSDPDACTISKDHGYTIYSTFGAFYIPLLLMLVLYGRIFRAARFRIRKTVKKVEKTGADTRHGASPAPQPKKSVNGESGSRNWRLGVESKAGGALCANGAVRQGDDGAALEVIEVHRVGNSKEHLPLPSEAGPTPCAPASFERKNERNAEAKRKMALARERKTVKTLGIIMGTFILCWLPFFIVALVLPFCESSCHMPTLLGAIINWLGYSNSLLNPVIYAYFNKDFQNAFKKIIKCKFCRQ

[4] = biological target: T4, Alpha-1B adrenergic receptor (Homo sapiens, UniProt P35368); assay: Binding affinity to human cloned adrenergic alpha-1B receptor by radioligand binding assay
T4 sequence (P35368 whole entry): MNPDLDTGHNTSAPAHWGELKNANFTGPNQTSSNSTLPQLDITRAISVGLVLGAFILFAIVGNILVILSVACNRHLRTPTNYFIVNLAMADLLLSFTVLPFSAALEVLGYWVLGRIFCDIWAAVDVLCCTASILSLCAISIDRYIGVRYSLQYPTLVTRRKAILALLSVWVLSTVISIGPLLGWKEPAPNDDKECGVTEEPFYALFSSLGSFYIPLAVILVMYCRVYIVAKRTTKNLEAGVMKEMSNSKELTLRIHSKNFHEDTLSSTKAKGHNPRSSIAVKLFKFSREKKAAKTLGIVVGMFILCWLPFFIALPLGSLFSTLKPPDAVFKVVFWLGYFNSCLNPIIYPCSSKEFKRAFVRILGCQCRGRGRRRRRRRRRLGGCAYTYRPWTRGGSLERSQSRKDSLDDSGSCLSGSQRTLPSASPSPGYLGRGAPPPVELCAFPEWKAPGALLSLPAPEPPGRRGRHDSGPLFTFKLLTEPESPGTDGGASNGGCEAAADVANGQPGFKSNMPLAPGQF

[5] = system: Mus musculus; assay: Inhibition of apomorphine-induced climbing in ip dosed Swiss Webster mouse; type: functional
[6] = biological target: T5, Alpha-2A adrenergic receptor (Homo sapiens, UniProt P08913); assay: Binding affinity to human cloned adrenergic alpha-2A receptor by radioligand binding assay
T5 sequence (P08913 whole entry): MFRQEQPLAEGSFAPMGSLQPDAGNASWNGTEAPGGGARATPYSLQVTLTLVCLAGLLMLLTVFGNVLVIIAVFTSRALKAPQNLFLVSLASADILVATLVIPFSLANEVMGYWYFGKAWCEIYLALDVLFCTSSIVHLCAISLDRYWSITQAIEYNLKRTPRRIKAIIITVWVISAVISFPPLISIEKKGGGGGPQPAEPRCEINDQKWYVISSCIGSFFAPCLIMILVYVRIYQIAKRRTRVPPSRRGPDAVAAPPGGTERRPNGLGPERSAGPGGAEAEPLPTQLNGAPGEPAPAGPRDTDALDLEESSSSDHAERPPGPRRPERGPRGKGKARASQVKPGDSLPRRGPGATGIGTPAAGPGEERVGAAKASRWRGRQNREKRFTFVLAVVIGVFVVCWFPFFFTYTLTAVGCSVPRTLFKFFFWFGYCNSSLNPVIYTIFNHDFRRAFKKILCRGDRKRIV

[7] = biological target: T6, Alpha-2C adrenergic receptor (Homo sapiens, UniProt P18825); assay: Binding affinity to human cloned adrenergic alpha-2C receptor by radioligand binding assay
T6 sequence (P18825 whole entry): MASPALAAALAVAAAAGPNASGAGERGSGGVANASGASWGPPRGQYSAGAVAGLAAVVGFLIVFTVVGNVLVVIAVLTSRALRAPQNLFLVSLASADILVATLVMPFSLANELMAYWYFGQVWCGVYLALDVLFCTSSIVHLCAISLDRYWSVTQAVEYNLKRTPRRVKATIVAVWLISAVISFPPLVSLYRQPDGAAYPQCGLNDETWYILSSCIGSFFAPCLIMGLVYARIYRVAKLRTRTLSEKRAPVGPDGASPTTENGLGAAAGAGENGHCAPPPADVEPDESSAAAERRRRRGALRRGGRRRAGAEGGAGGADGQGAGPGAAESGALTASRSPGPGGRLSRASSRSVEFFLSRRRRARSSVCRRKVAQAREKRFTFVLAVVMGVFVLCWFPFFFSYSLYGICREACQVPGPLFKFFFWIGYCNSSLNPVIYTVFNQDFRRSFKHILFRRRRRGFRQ

[8] = biological target: T7, Alpha-2B adrenergic receptor (Homo sapiens, UniProt P18089); assay: Binding affinity to human cloned adrenergic alpha-2B receptor by radioligand binding assay
T7 sequence (P18089 whole entry): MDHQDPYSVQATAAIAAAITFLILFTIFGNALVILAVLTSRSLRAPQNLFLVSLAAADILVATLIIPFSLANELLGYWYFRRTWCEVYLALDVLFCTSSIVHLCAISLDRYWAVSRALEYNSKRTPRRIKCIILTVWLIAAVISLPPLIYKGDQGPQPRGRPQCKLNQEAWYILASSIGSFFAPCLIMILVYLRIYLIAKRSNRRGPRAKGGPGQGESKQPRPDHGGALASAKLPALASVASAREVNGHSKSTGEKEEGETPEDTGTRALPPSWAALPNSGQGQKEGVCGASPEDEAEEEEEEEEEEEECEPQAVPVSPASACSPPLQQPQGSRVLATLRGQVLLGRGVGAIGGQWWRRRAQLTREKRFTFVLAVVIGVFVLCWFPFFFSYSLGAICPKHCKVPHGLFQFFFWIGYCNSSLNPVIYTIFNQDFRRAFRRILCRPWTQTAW

Row | Ki [1] [nM] | Ki [2] [nM] | Ki [3] [nM] | Ki [4] [nM] | SMILES | ED50 [5] [mg/kg] | Ki [6] [nM] | Ki [7] [nM] | Ki [8] [nM]
1 | 1250 | 34 | 832 | 41.7 | O=C(CCCN1CCC(O)(c2ccc(Cl)cc2)C1)c1ccc(F)cc1 (stereo in doubt; 2b) | – | – | – | –
2 | – | – | – | – | CN1CCN(C2=Nc3cc(Cl)ccc3Nc3ccccc32)CC1 [CLOZAPINE] | 5.54 | – | – | –
3 | 3600 | 115 | 722 | 102 | O=C(CCCN1CCC(O)(c2ccc(Cl)cc2)C1)c1ccc(F)cc1 (single isomer, unassigned; (+)) | 1.6 | – | – | –
4 | – | – | – | – | O=C(CCCN1CCC(O)(c2ccc(Cl)cc2)CC1)c1ccc(F)cc1 [HALOPERIDOL] | 0.007 | – | – | –

Row | SMILES | Ki [1] [nM] | Ki [2] [nM] | Ki [3] [nM] | Ki [4] [nM] | ED50 [5] [mg/kg] | Ki [6] [nM] | Ki [7] [nM] | Ki [8] [nM]
5 | O=C(CCCN1C2CCC1CC(O)(c1ccc(Cl)cc1)C2)c1ccc(F)cc1 (stereo unspecified) | – | 39.3 | – | 42.7 | – | 2830 | 143 | 516
